Reference: patent US8075902B2, “Diagnosis and treatment of cancer related to human dormancy” (priority 2007, dated 2011)

Columns and labels:
[1] = test system: AU565 human breast cancer cells; experiment: Combination study (MTT), AU565 breast cancer cells, Example 6; format: cell-based; conditions: 6 days, #3 at 2%, #5 at 4%, #6 at 12.5%, FIG. 4
From the text: To determine if a combination of antimicrobial agents plus anti-hibernation agents would act synergistically to inhibit cancer, we carried out another study with the human breast cancer cell line AU565 in vitro. We used solution #3 as described above, which included isoniazid (INH), rifampin, ethambutol, minocycline, metronidazole, acyclovir and telithromycin at a 2% concentration of the previous mixture used in Example 5. This was to decrease the cell growth inhibition to ease interpretation of the results. We combined #3 with #6 (curcumin) and #3 with #5 (luteolin) to investigate the synergistic potential of these combinations using the following procedure. […] AU565 human breast cancer cells were routinely maintained in RPMI-1640 medium supplemented with 10% fetal bovine serum, 2 mM sodium pyruvate, and 4.2 g/L glucose. The cells were cultured at 37° C. in an atmosphere of 95% air/5% CO2 and 100% humidity. When cells reached 80% confluence, they were harvested using 0.25% trypsin/EDTA solution. The harvested cells were re-suspended in appropriate medium and reseeded in 96-well plate at a density of 3,000 cells/well/200 μl. Cells were allowed to attach for 24 h, then various concentrations of the test compositions were added to each appropriate well. […] At the end of 6 days, viable cells were measured by MTT assay as described above in Example 2. […]

[2] = cited from earlier work

| Structure (SMILES) | percent inhibition of tumor cell growth [1] | half life [2] |
| --- | --- | --- |
| O=c1cc(-c2ccc(O)c(O)c2)oc2cc(O)cc(O)c12 [Sample #5, Luteolin] | 10% | – |
| COc1cc(/C=C/C(=O)CC(=O)/C=C/c2ccc(O)c(OC)c2)ccc1O [Sample #6, Curcumin] | 9% | – |
| O=C1O[C@H]([C@@H](O)CO)C(O)=C1O [Ascorbic acid] | – | 30 min |
